Entries after “also recorded” stand apart in the source; their conditions may differ.
Legend:
[1] = system: COS7 cells; test: CCK-8 cell viability assay; format: cell-based; conditions: 27 h, 37 °C
Procedure: We next examined the suitability of 1 for live-cell experiments. First, we performed CCK-8 assay (Dojindo) to examine its cytotoxicity. COS7 cells were incubated with various concentrations of 1 for 27 h at 37 °C under 5% CO2 and the cell viability was assessed. […] We then examined whether 1 can inhibit the enzymatic activity of hCSE in living cells by employing an indirect approach (Supplementary Fig. S12). HEK293T cells expressing hCSE were incubated with 0–1 mM 1 for 30 min, then washed twice with phosphate-buffered saline (PBS), and lysed in RIPA buffer (50 mM Tris–HCl buffer (pH 7.6), 150 mM NaCl, 1% Nonidet P40 Substitute, 0.5% sodium deoxycholate, protease inhibitor cocktail, 0.1% SDS). The inhibitory activity of 1 was evaluated by fluorescence detection after adding 1.5 mM cysteine, 100 μM PLP and 1 μM HSip-1 to these cell lysates.
We performed CCK-8 (Cell Counting Kit-8) assay (Dojindo) to examine cell viability. […] This absorbance is proportional to the number of living cells. […] The absorbance at 450 nm was measured with a microplate reader (EnVision, Perkin Elmer).
Supplementary Figure S11. […] COS7 cells were incubated in DMEM (Dulbecco’s modified Eagle’s medium) containing 1 (1, 3, 10, 30 and 100 µM) for […] and the cell viability was measured using CCK-8 reagent. […]

[2] = biological target: T1, rCSE (Rattus norvegicus, UniProt P18757); test: SPR measurement of binding between rCSE and 1; design: made in house; host or cells: E. coli
Procedure: Moreover, we performed surface plasmon resonance (SPR) assay to investigate the binding kinetics between rCSE and 1. rCSE was immobilized on a sensor chip of an SPR sensor, and various concentrations (6.25, 12.5, 25 and 50 µM) of 1 were flowed over it. The sensor chip was flushed with buffer solution not containing 1 before each concentration change of 1. […] In SPR binding studies between small molecule ligands and proteins, the washing process often markedly decreases the SPR signal.
The interaction between rCSE and oxamic hydrazide was analyzed using a Biacore T200 SPR instrument (Cytiva). A CM7 Biacore sensor chip (Cytiva) was used to immobilize rCSE at approximately 35,000 RU after activation with N-hydroxysuccinimide/N-ethyl-N′-(3-dimethylaminopropyl) carbodiimide hydrochloride. Acetate buffer (pH 5.5) was used to dilute rCSE. The activated surface of the sensor was blocked with 1 M ethanolamine. The interaction between rCSE and oxamic hydrazide was measured by injecting increasing concentrations of oxamic hydrazide into the sensor chip. The interaction was measured in 20 mM HEPES (pH 7.4) containing 150 mM NaCl, 0.5 mM TCEP, 100 µM PLP, 0.005% (v/v) Tween-20 and 1% (v/v) DMSO as a cosolvent.

[3] = biological target: T1, rCSE; test: rCSE inhibition, H2S detection by gas chromatography; format: biochemical; design: His-tag (C); made in house; host or cells: E. coli BL21; conditions: 1.5 mM cysteine, 100 μM PLP, mean ± S.E., read-out: IC50, inhibition of H2S production by rCSE
Procedure: Next, in order to further confirm the CSE-inhibitory ability of 1, we employed a gas chromatographic method. A mixture of 30 μg/mL rCSE, 100 μM PLP and 1.5 mM cysteine in 30 mM HEPES buffer (pH 7.4) with or without 1 or PAG was incubated in a sealed glass vial, and the air containing enzymatically produced H2S in the glass vial was analyzed by gas chromatography.
Supplementary Figure S4. (a) H2S production by rCSE in the presence of various concentrations of 1 was measured by gas chromatography. A solution of 30 μg/mL rCSE, 100 μM PLP and 1.5 mM cysteine in 30 mM HEPES buffer (pH 7.4) was incubated at r.t. for 60 min. Error bars represent ±S.D. (n = 4). (b) Inhibitory activity of 1 (mean ± S.E.). H2S was detected by gas chromatography. Error bars represent ± S.D. (n = 4).

[4] = biological target: T1, rCSE; test: rCSE inhibition, cysteine persulfide (sulfane sulfur) production from cystine detected with SSP4; format: biochemical; design: His-tag (C); made in house; host or cells: E. coli BL21; conditions: cystine as substrate, SSP4 probe, mean ± S.E.
Procedure: We further examined whether or not 1 can inhibit the production of cysteine persulfide from cystine by CSE (Supplementary Fig. S5)[10], using a commercially available sulfane sulfur-detecting probe, SSP4.
10 µL of 0.5 mM cystine solution in 30 mM HEPES (pH 7.4) was added to 10 µL of solution containing 50 µg/mL rCSE, 100 µM PLP, 1 µM SSP4 (Dojindo), 0.005% tween 20 and various concentrations of the inhibitor (0.5% DMSO as a cosolvent). The mixture was incubated at 37 °C for 60 min and the fluorescence intensity of SSP4 was measured with a microplate reader.

T1 sequence (P18757 whole entry): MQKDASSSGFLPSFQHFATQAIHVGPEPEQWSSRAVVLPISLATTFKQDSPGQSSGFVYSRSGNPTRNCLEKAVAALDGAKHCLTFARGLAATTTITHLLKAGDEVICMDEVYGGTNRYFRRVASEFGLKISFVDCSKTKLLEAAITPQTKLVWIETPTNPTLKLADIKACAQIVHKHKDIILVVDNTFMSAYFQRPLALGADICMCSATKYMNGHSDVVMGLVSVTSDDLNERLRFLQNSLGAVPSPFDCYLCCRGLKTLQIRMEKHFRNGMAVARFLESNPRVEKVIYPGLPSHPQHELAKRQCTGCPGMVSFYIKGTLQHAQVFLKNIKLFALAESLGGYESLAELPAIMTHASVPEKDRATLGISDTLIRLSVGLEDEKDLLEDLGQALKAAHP

binding to rCSE (SPR) ([2]; 6.25, 12.5, 25 and 50 µM): increased concentration-dependently
IC50 [3]: 23 ± 6 µM
IC50 [4]: 33 ± 3 µM
SMILES: NNC(=O)C(N)=O [Compound 1, oxamic hydrazide]
cytotoxicity (cell viability) [1]: No cytotoxicity was observed below 100 µM
dissociation from rCSE during washing (SPR) ([2]; washing with buffer not containing 1): little dissociation occurs; also recorded: no dissociation
